Test results reported in patent US4950658A, “Method of medical treatment of Alzheimer's disease” (priority 1988, dated 1990).

Legend:
[1] = system: cholinesterase; conditions: when normal acetylcholine levels are regained (within 24 hours) after acute administration; cited from earlier work
[2] = system: brain cholinesterase; conditions: cited from earlier work
[3] = system: acetylcholine; conditions: acute administration, all brain regions; cited from earlier work
[4] = with loss of enzymatic inhibitory activity; cited from earlier work
[5] = system: acetylcholine; conditions: cortex, striatum, hippocampus and midbrain; cited from earlier work
[6] = system: brain acetylcholinesterase; conditions: 125 mg/kg intraperitoneal, within 15 minutes; cited from earlier work
[7] = system: acetylcholine; conditions: 125 mg/kg intraperitoneal, simultaneous with inhibition; cited from earlier work
[8] = system: Alzheimer's disease patients; test: Open metrifonate study in Alzheimer's disease patients, ADAS; assay type: in vivo
Procedure: We have administered metrifonate to 15 Alzheimer's disease patients. Patients were diagnosed using Diagnostic Statistical Manual IIIR criteria. […] Patients with moderately severe Alzheimer's disease were accepted to explore for effects of severity on drug response.
(§1) Patients were tested using the Alzheimer's Disease Assessment Scale (ADAS) (Rosen et al 1984), Mini Mental State Examination (Folstein et al 1975), a Clincial Global Assessment Scale (Guy 1973) and a rating scale for side effects. A laboratory battery to assess hematopoietic, hepatic, urinary and cardiac status, physical examination, vital signs and measurement of blood cholinesterase activities were completed. Patients were then given in a single oral dose under open conditions metrifonate 2.5 mg/Kg and 5 mg/Kg on successive weeks and reassessed 1, 4 and 7 days after the 2.5 mg/Kg dose and 4 and 7 days after the 5 mg/Kg dose. Patients were next administered metrifonate one month later after a second baseline assessment (blood cholinesterase have returned to initial values by 1 month) and were given on four successive weeks 7.5 mg/Kg, 7.5 mg/Kg, 15 mg/Kg and 15 mg/Kg and assessed 7 days after each dosing prior to administration of the next dose. At each assessment all the cognitive and medical studies at baseline were repeated.
To identify responders we used the criterion of an improvement of 4 points on the ADAS. Among 5 patients who have received all four dosage levels we have identified 5 as responders, among 10 patients who have received both the 2.5 and 5 mg/Kg doses we have identified 5 responders for a total of 10 responders identified. […] The longest term patients (n=5) were on metrifonate for a total of four months.
In the completed patients the preferred dose, defined as maximum improvement without interfering side effects, was identified. Best doses ranged from 2.5 to 7.5 mg/Kg. Lower doses of about 0.5 mg/Kg were also operable.

[9] = system: acetylcholinesterase; conditions: cited from earlier work
[10] = system: acetylcholine; test: Acetylcholine levels in rat brain after one or two consecutive administrations; assay type: in vivo
From the text: The second administration of the drugs was timed so as to allow acetylcholine levels to return to approximately (+12%) control levels and the concentration of the drug was the highest that would allow 100% survival.

[11] = system: cholinesterase; test: Cholinesterase activity in rat brain regions after intracerebroventricular metrifonate; assay type: in vivo; conditions: 2.5 mg intracerebroventricularly, injected side, 30 min
Procedure: (§2) Levels of acetylcholine increased by 45% at 45 min. then returned to normal by 120 min. When metrifonate (2.5 mg) was given intracerebroventricularly the activity of cholinesterase decreased in the injected side at 30 min. to 20% in hippocampus, 22% in the medulla, 50% in the cerebellum, 58% in the striatum and 72% in the cortex.

[12] = system: acetylcholine; test: Acetylcholine levels in rat brain regions after intracerebroventricular metrifonate; assay type: in vivo; conditions: 2.5 mg intracerebroventricularly
Procedure: as §2

[13] = system: plasma acetycholinesterase; conditions: in vivo; cited from earlier work
[14] = in vivo; cited from earlier work
[15] = system: cholinesterase and acetylcholinesterase in blood; test: Blood cholinesterase activities in Alzheimer's disease patients on metrifonate; assay type: in vivo; conditions: 15 patients, 4-16 weeks of once weekly drug
Procedure: as §1
(§3) In sum we have successfully administered metrifonate to 15 patients (4-16 weeks of once weekly drug) without the appearance of side effects except for nausea and vomiting in four patients that has not reoccurred following administration of the highest dose as a divided dose over two days. […]

[16] = system: brain cholinesterase; test: Cholinesterase activity in rat after intramuscular inhibitor; assay type: in vivo; conditions: for activity of cholinesterase: 80 mg/Kg intramuscular
[17] = Side effects in Alzheimer's disease patients on metrifonate; assay type: in vivo
Procedure: as §1, §3

[18] = Side effects of cholinesterase inhibitors in rats; set-up: animals with facial clonus / animals with sedation: dose or concentration left out as unconfirmed
[19] = system: plasma cholinesterase; test: Plasma cholinesterase inhibition by naled, DDVP and metrifonate; assay type: biochemical
From the text: Unlike metrifonate, which acts as a slow release formulation, naled degrades rapidly in vivo to the metabolite DDVP. […] The slightly lower values in inhibition observed for naled than that of DDVP can be attributed to its higher molecular weight. […] All the cholinesterase inhibition activity of naled is a result of the formation of DDVP.

[20] = system: Alzheimer patients; conditions: i.v. administration; cited from earlier work
[21] = system: 3H-choline accumulation and K+ evoked acetylcholine release; test: 3H-choline accumulation and K+ evoked acetylcholine release in vitro; conditions: concentration giving 100% inhibition of cholinesterase in vitro; after each of two doses
[22] = physostigmine i.m., tetrahydroaminoacridine 15 mg/Kg
[23] = tetrahydroaminoacridine 15 mg/Kg

COP(=O)(OC)OC=C(Cl)Cl [DDVP, 2,2 dichlorovinyl dimethyl phosphate]
cholinesterase still inhibited [1]: 35% | time to become active as inhibitor of brain cholinesterase ([2]; in vivo): one | inhibition of brain cholinesterase ([2]; maximal (up to)): up to 96% | time to regain normal acetylcholine levels [3]: ≤ 24 h | inactivation by oxidative metabolism [4]: rapidly inactivated | time to peak accumulation of acetylcholine [5]: ≤ 5 min

COP(=O)(OC)C(O)C(Cl)(Cl)Cl (stereo not drawn) [metrifonate]
inhibition of brain acetylcholinesterase [6]: 70% | change in acetylcholine [7]: increase | effect of the highest dose on cognitive performance ([8]; 15 mg/KG): deterioration in cognitive performance | clinical effect of once weekly dosing ([8]; 0.5 to 15 mg/Kg body weight/week, significant number of Alzheimer's disease patients): improvement in memory, cognition and other behaviors | total of responders identified ([8]; 15 patients): 10 | effect of lower doses ([8]; about 0.5 mg/Kg): operable | change on the ADAS in responders ([8]; all responders): ≥ 9 | responders (improvement of 4 points on the ADAS) ([8]; among 5 patients who received all four dosage levels): 5 | responders (improvement of 4 points on the ADAS) ([8]; among 10 patients who received both the 2.5 and 5 mg/Kg doses): 5 | activity of the precursor itself against acetylcholinesterase [9]: not active | time of return of acetylcholine to normal ([10]; 80 mg/Kg intramuscular): ≤ 120 min | increase in levels of acetylcholine ([10]; 80 mg/Kg intramuscular, 45 min): 45% | time at which acetylcholine returned practically to control levels ([10]; first administration): 90 min | time at which the peak value of acetylcholine was reached ([10]; first administration): 45 min | increase in acetylcholine levels after the first administration ([10]; rat brain, first of two consecutive administrations): 45% | duration of the acetylcholine increase after the second administration ([10]; second consecutive administration): 120 min | increase in acetylcholine after the second administration ([10]; second consecutive administration, highest dose allowing 100% survival): 33% | activity of cholinesterase, cerebellum [11]: 50% | activity of cholinesterase, cortex [11]: 72% | activity of cholinesterase, hippocampus [11]: 20% | activity of cholinesterase, medulla [11]: 22% | activity of cholinesterase, striatum [11]: 58% | maximal level of acetylcholine, hippocampus and cortex ([12]; 45 min): 160 % of baseline | peak level of acetylcholine, striatum ([12]; 60 min): 155 % of baseline | half life of cholinesterase inhibition [13]: 120 to 140 h | absorption in humans [14]: rapidly absorbed | tolerance in humans [14]: relatively few side effects | inhibition of cholinesterase and acetylcholinesterase in blood [15]: up to 80% | activity of cholinesterase ([16]; 30 min): 26% | activity of cholinesterase ([16]; 180 min): 50% | activity of cholinesterase ([16]; 360 min): 74% | peak cholinesterase inhibition ([16]; at the doses used): 85% | time of peak cholinesterase inhibition ([16]; at the doses used): 30 min | patients with nausea and vomiting ([17]; 15 patients, 4-16 weeks of once weekly drug): four | adverse, side or toxic effects ([17]; up to 15 mg/Kg body weight/week, except occasional nausea and vomiting): have not occurred | seizures ([18]; metrifonate 80 mg/Kg 1M): did not occur | survival ([18]; metrifonate 80 mg/Kg 1M): all animals survived | time at which symptoms developed after the injection ([18]; metrifonate 80 mg/Kg 1M): 20 to 35 min | side effects compared with the other two drugs ([18]; metrifonate 80 mg/Kg 1M vs physostigmine and tetrahydroaminoacridine): less frequent and less severe | increase necessary to obtain the same amount of plasma cholinesterase inhibition ([19]; relative to naled/DDVP): 10 fold

COP(=O)(OC)OC(Br)C(Cl)(Cl)Br (stereo not drawn) [naled, 1,2-dibromo-2,2-dichlorvoethyl dimethyl phosphate]
plasma cholinesterase inhibition compared with DDVP [19]: parallel to that by DDVP | inherent cholinesterase inhibition activity ([19]; conclusion from comparison with DDVP): without inherent cholinesterase inhibition activity of its own

CNC(=O)Oc1ccc2c(c1)[C@]1(C)CCN(C)[C@@H]1N2C [physostigmine]
studies that have shown improvement in memory [20]: 6 out of 9 | 3H acetylcholine release [21]: significantly more | animals with splay of hind limbs ([18]; physostigmine 300 mg/Kg i.m.): 25% | animals with facial clonus ([18]; physostigmine i.m.): 15% | animals with sedation ([18]; physostigmine i.m.): 10% | animals with fasciculations [18, 22]: 60% | animals with tremor [18, 22]: 30%

Nc1c2c(nc3ccccc13)CCCC2 [tetrahydroaminoacridine]
animals with fasciculations [18, 22]: 25% | animals with tremor [18, 22]: 25% | animals with facial and forelimb clonus [18, 23]: 10% | animals with generalized seizures [18, 23]: 4% | animals with increased salivation [18, 23]: 60% | animals with lacrimation [18, 23]: 40% | animals with pronounced splay [18, 23]: 35% | interval between generalized seizures [18, 23]: 5 to 10 min
